From patent US6538013B2, “Acyclic and cyclic guanidine-and acetamidine derivatives, their preparation and their use as pesticides, esp. as parasiticides” (Novartis Animal Health US, Inc., priority 1998, dated 2003)

Tests used:
Assay type in all cases: in vivo
[1] = test system: cat fleas [Ctenocephalides felis (Bouche)]; test: Control of adult fleas in cats by means of pour-on application; settings: for action against adult fleas: pour-on on back of neck, 20 mg of active ingredient per kg body weight; for long-term action / long-term activity against adult fleas: evaluated up to day +63
Procedure: Test protocol for each test compound: in order to determine the effectiveness of the test compounds against fully grown fleas, four groups each of two cats are used. Each cat is infested with 100 cat fleas [Ctenocephalides felis (Bouche)] and treated with 20 mg of active ingredient per kg body weight. The treatment is effected by applying the formulation to a locally limited area on the back of the cat's neck. While one group is infested with fleas but is treated only with a placebo, that is to say a formulation without active ingredient, and serves as control, another group is treated with nitenpyram as comparison substance; the two remaining groups receive the test compounds. Evaluation is made in each case by combing surviving fleas out of the animal's coat and comparing the number counted with the number of fleas in the control group and in the group treated with nitenpyram. The procedure in detail is as follows: each cat is infested with 100 fleas immediately after treatment on day 0. On day +1, each animal is combed and the number of surviving fleas is determined; the surviving fleas are then replaced on the same cat and after 24 hours the combing and evaluation are repeated. The fleas still surviving after those 24 hours are not returned to the cat. The described procedure is then repeated on days +3, +7, +9, +14, +21, +28, +35, +42, +49, +56 and +63 and in this way the effectiveness and duration of action are determined. The effectiveness is determined in accordance with the following formula: [formula]

[2] = test system: cat fleas [Ctenocephalides felis (Bouche)]; test: Control of adult fleas in cats by means of subcutaneous injection; settings: for action against adult fleas: subcutaneous injection behind left shoulder blade
Procedure: Test protocol for each test compound: in order to determine the effectiveness of the test compounds against fully grown fleas, four groups each of two cats from 1.5 to 4 years of age are used. Each cat is infested with 100 cat fleas [Ctenocephalides felis (Bouche)]. Two groups are treated with 20 mg of active ingredient per kg body weight. The treatment is effected by subcutaneous injection of a solution of the active ingredient behind the left shoulder blade. While one group is infested with fleas but is treated only with a placebo, that is to say a formulation without active ingredient, and serves as control, another group is treated with nitenpyram as comparison substance. Evaluation is made in each case by combing surviving fleas out of the animal's coat and comparing the number counted with the number of fleas in the control group and in the group treated with nitenpyram. The procedure in detail is as follows: each cat is infested with 100 fleas immediately after treatment on day 0. On day +1, each animal is combed and the number of surviving fleas is determined; the surviving fleas are then replaced on the same cat and after 24 hours the combing and evaluation are repeated. The fleas still surviving after those 24 hours are not returned to the cat. The described procedure is then repeated on days +3, +7, +9, +14, +21 and +28 and in this way the effectiveness and duration of action is determined. The effectiveness is determined using the same formula as in the preceding Example.

[3] = test system: dog fleas [Ctenocephalides canis]; test: Control of adult fleas in dogs by means of pour-on application
From the text: In dogs the test proceeds in an entirely analogous manner. In order to investigate the total action and any side-effects after administration in the form of a pour-on formulation, compound No. 1.008 is selected and tested on 11 dogs. The test protocol and the results are given in Example 7.
Test protocol for each test compound: in order to determine the effectiveness of the test compounds against fully grown fleas, three groups each of three dogs (1 male and 2 female beagles) are used; one group consists of two dogs (2 male beagles) and serves as control group. The entire test group consists of 11 beagles between 1 and 3.5 years of age. Each dog is infested with a total of 100 dog fleas [Ctenocephalides canis], 50 male and 50 female. Group 1 is treated with 2 mg, group 2 with 10 mg and group 3 with 20 mg of active ingredient per kg body weight. The treatment is effected by applying the pour-on formulation to a locally limited area on the back of the dog's neck. The fourth group is the control group. The latter is infested with fleas but is treated only with a placebo, that is to say a formulation without active ingredient, and serves for control purposes. Evaluation is made in each case by combing surviving fleas out of the animal's coat and comparing the number counted with the number of fleas in the control group. The procedure in detail is as follows: after treatment with the test formulation (day 0) each dog is infested on each of the subsequent days +1, +7, +14, +23, +28, +35, +49, +56, +63, +70, +77, +84 and +98 with 100 fleas. On the following day, each animal is combed and the number of surviving fleas is determined. The surviving fleas are then replaced on the same dog and after 24 hours the combing and evaluation are repeated. The fleas still surviving after those further 24 hours (2nd day after infestation with 100 fleas) are not returned to the dog. Then on days +3, +7, +9, +14, +21, +28, +35, +42 etc. the described procedure is repeated and in this way the effectiveness and the duration of action are determined. The effectiveness is determined using the formula given in Example 6.

Structure (SMILES)	action against adult fleas [1]	action against adult fleas ([2]; cats, 20 mg/kg body weight)	other results
CCCCCCC(=O)OCOC(=O)N(C)C(=C[N+](=O)[O-])N(CC)Cc1ccc(Cl)nc1 [Compound 1.057]			long-term action in a further, fully analogous test ([1]; pour-on): long-term action equally as excellent
CCN(Cc1ccc(Cl)nc1)C(=C[N+](=O)[O-])N(C)C(=O)OCOC(C)=O [Compound 1.001]	Very good action	Very good action	
CCCCCCCCCCC(=O)OCOC(=O)N(C)C(=C[N+](=O)[O-])N(CC)Cc1ccc(Cl)nc1 [Compound 1.058]			long-term action in a further, fully analogous test ([1]; pour-on): long-term action equally as excellent
CCN(Cc1ccc(Cl)nc1)C(=C[N+](=O)[O-])N(C)C(=O)OCOC(=O)C(C)(C)CC [Compound 1.056]			long-term action in a further, fully analogous test ([1]; pour-on): long-term action equally as excellent
CCN(Cc1ccc(Cl)nc1)C(=C[N+](=O)[O-])N(C)C(=O)OCOC(=O)c1ccccc1 [Compound 1.018]	Very good action	Very good action	
CCCCCCCCCCCCCCCC(=O)OCOC(=O)N(C)C(=C[N+](=O)[O-])N(CC)Cc1ccc(Cl)nc1 [Compound 1.014]	Very good action	Very good action	
CCCCCCCC(=O)OCOC(=O)N(C)C(=C[N+](=O)[O-])N(CC)Cc1ccc(Cl)nc1 [Compound 1.011]	Very good action	Very good action	action (effectiveness) to which it gradually declines after 7 weeks ([1]; pour-on, 20 mg/kg body weight): 26%; long-term action / long-term activity against adult fleas ([1]; pour-on, 20 mg/kg body weight): especially high level of long-term activity
CCCCCCCCCCCC(=O)OCOC(=O)N(C)C(=C[N+](=O)[O-])N(CC)Cc1ccc(Cl)nc1 [Compound 1.012]	Very good action	Very good action	action (effectiveness) to which it gradually declines after 7 weeks ([1]; pour-on, 20 mg/kg body weight): 26%; long-term action / long-term activity against adult fleas ([1]; pour-on, 20 mg/kg body weight): especially high level of long-term activity; period of full action ([2]; cats, subcutaneous injection, 20 mg/kg body weight): at least 20 days; long-term action / long-term activity against adult fleas ([2]; cats, subcutaneous injection, 20 mg/kg body weight, evaluated up to day +28): especially high level of long-term activity
CCCCCC(=O)OCOC(=O)N(C)C(=C[N+](=O)[O-])N(CC)Cc1ccc(Cl)nc1 [Compound 1.019]			long-term action in a further, fully analogous test ([1]; pour-on): long-term action equally as excellent
CCCCCCCCCCCCCC(=O)OCOC(=O)N(C)C(=C[N+](=O)[O-])N(CC)Cc1ccc(Cl)nc1 [Compound 1.013]	Very good action	Very good action	
CCN(Cc1ccc(Cl)nc1)C(=C[N+](=O)[O-])N(C)C(=O)OCOC(=O)c1ccc(C(C)(C)C)cc1 [Compound 1.022]	Very good action	Very good action	
CCCCC(=O)OCOC(=O)N(C)C(=C[N+](=O)[O-])N(CC)Cc1ccc(Cl)nc1 [Compound 1.008]	Very good action	Very good action	action (effectiveness) to which it gradually declines after 7 weeks ([1]; pour-on, 20 mg/kg body weight): 26%; long-term action / long-term activity against adult fleas ([1]; pour-on, 20 mg/kg body weight): especially high level of long-term activity; action (effectiveness) against fleas ([3]; dogs (beagles), pour-on, groups 2, 10 and 20 mg/kg (group not stated), 79 days after application): 100%; effectiveness against fleas ([3]; dogs (beagles), pour-on, groups 2, 10 and 20 mg/kg (group not stated), day 86): 98.6%; effectiveness against fleas ([3]; dogs (beagles), pour-on, groups 2, 10 and 20 mg/kg (group not stated), day 98): 92.3%; skin irritation or other undesirable side-effects ([3]; dogs of the three test groups, pour-on 2, 10 and 20 mg/kg body weight): no skin irritation or any other undesirable side-effects
CCN(Cc1ccc(Cl)nc1)/C(=C\[N+](=O)[O-])NC [nitenpyram, (E)-N-(6-chloro-3-pyridylmethyl)-N-ethyl-N-methyl-2-nitrovinylidenediamine, reference compound]			period of full action (100% effectiveness) ([1]; pour-on, 20 mg/kg body weight): ≤ 3 weeks; period of full action ([2]; sc, 20 mg/kg): 2 days
CCCCCCCCCCCCCCCCCC(=O)OCOC(=O)N(C)C(=C[N+](=O)[O-])N(CC)Cc1ccc(Cl)nc1 [Compound 1.015]	Very good action	Very good action	
